Experimental data taken from patent US20140348857A1, “METHODS OF DIAGNOSIS AND TREATMENT OF ENDOPLASMIC RETICULUM (ER) STRESS-RELATED CONDITIONS” (MASSACHUSETTS INSTITUTE OF TECHNOLOGY, priority 2011, published 2014).
Where a SMILES comes first, the peptide text is derived from it. The star is where a group is joined. Cbz = O=C(OCc1ccccc1)*

Tests used:
PERK = PERK and eIF2α phosphorylation immunoblot in HeLa cells; format: cell-based, human; conditions: control HeLa cells; Brefeldin A 5 μg/ml, Tunicamycin 3 μg/ml
Text: To determine the effects of (ADP-ribosyl)ation on PERK and IRE1α signaling, GFP-PARP-16, GFP-PARP-16^H152Q Y182A, or GFP alone were over-expressed at similar concentrations, and PERK and IRE1α activation examined using two standard assays; (i) detection of PERK phosphorylation at Thr 981 and phosphorylation of its substrate eIF2α at Ser 51 using phospho-specific antibodies, and (ii) monitoring splicing of the IRE1α substrate XBP-1 mRNA.
To determine if PARP-16 is required for PERK or IRE1α activation, we compared activation in PARP-16 knock-downs to controls. […] Since PERK and IRE1α activity result in the time-dependent activation of downstream transcriptional programs regulated by ATF4 and spliced XBP-1, respectively, we analyzed PERK and IRE1α signaling every 4 hours over a 12-hour period in PARP-16 knock-downs and controls treated with Tunicamycin. Components of each pathway were analyzed via immunoblot or RT-qPCR analysis. While IRE1α activation, detected by phosphorylation of IRE1α, occurred 4 hours post-treatment in controls, such phosphorylation was barely detectable in PARP-16 knock-downs at any time (FIG. 7C, left). […]
Immunofluorescence analysis was performed as described in Leung et al., Mol. Cell 42: 489-499, 2011. […] Fluorescence, biochemical protease protection assays and membrane extraction assays were performed as described in Schreiber et al., Nat. […]

ERAD machinery = test: ERAD activity assay, CD3δ-YFP clearance by cycloheximide chase; format: cell-based, human; conditions: MG132 10 μM
Text: While our data strongly point to direct effects of PARP-16 on PERK and IRE1α signaling, compromised ERAD (ER-associated degradation) and/or chaperone capacities of the ER in PARP-16 knock-downs could also affect UPR activation. ERAD activity in PARP-16 knock-downs was examined by measuring clearance of CD3δ-YFP, a model substrate of ERAD machinery. CD3δ-YFP degradation kinetics were similar in PARP-16 knock-downs and controls as assayed by cycloheximide chase. […] The protein-folding capacity of the ER in PARP-16 knock-downs appear to be similar to controls as the protein concentrations of ER chaperones BiP and Calnexin, and disulfide isomerases PDI and ERp57, were similar (FIG. 9C).
ROS was evaluated using a cell permeant […] derivative of fluorescein (CM-H2DCFDA, Invitrogen), following the manufacturer's protocol (Invitrogen). […] The fluorescence intensity of oxidized ROS probe was measured using a microplate reader (Tecan). […] The ratiometric fluorescence at 340 nm/380 nm was measured every 2 min for 20 min, using a microplate reader (Tecan). […] Total RNA was extracted using RNeasy kits and QIAshredder (Qiagen), and cDNA was amplified using Quantitect reverse transcription kit (Qiagen). RT-qPCR was performed with Quantitect SYBR Green PCR kit (Qiagen), using a LightCycler 480 (Roche). mRNA levels were normalized against GAPDH mRNA.

Compound: C[C@H]1CCC/C=C/[C@@H]2C[C@H](O)C[C@H]2[C@H](O)/C=C/C(=O)O1 [Brefeldin A]
- phosphorylation of PERK and eIF2α (PERK): robust phosphorylation of PERK and eIF2α

Compound: CC(C)C[C@@H](C=O)NC(=O)[C@H](CC(C)C)NC(=O)[C@H](CC(C)C)NC(=O)OCc1ccccc1 [MG132] (Cbz-Leu-Leu-Leu-aldehyde)
- CD3δ-YFP degradation (ERAD machinery): rescued degradation

Compound: Tunicamycin
- phosphorylation of PERK and eIF2α (PERK): robust phosphorylation of PERK and eIF2α
